In patent publication US8513227B2, “Inhibition of inflammatory cytokine production with tanshinones” (The Feinstein Institute for Medical Research, priority 2006, dated 2013):
Where two headings read alike, the source gives them in different places.

What was measured:
HMGB1 [1] = experiment: LPS-induced HMGB1 release in RAW 264.7 macrophage cultures (western blot); assay type: cell-based, murine; details: for IC50: Mus musculus, read-out: estimated IC50 for LPS-induced HMGB1 release
From the text: Cell culture. […] Rendon-Mitchell et al. 2003). Murine macrophages were pre-cultured in RPMI 1640 medium (Gibco BRL, Grand Island, N.Y.) supplemented with 10% fetal bovine serum (FBS) and 2 mmol/L glutamine. Human peripheral blood mononuclear cells (HuPBMCs) were isolated from the blood of healthy donors (Long Island Blood Bank, Melville, N.Y.) by density gradient centrifugation through Ficoll (Ficoll-Paque PLUS, Pharmacia, Piscataway, N.J.), and cultured in RPMI 1640 supplemented with 10% heat-inactivated human serum/0.2 mM L-glutamine as previously described (Rendon-Mitchell et al. 2003). LPS stimulation. Adherent macrophages or monocytes were gently washed with, and cultured in, serum-free OPTI-MEM I medium two hours before stimulation with bacterial endotoxin (lipopolysaccharide, LPS, E. coli 0111:B4, Sigma-Aldrich). […] Rendon-Mitchell et al. 2003; Wang et al. 1999). HMGB1 western blotting analysis. The levels of HMGB1 in the culture medium or serum were determined by western blotting analysis as previously described (Chen et al. 2004; Rendon-Mitchell et al. 2003; Wang et al. 1999). The relative band intensity was quantified using NIH image 1.59 software to determine HMGB1 levels with reference to standard curves generated with purified HMGB1.

TNF = experiment: LPS-mediated TNF secretion in RAW 264.7 macrophages (ELISA); assay type: cell-based, murine; details: concentrations up to 10 μM, FIG. 5C
Method: Cell culture. Murine macrophage-like RAW 264.7 cells were obtained from the American Type Culture Collection (ATCC, Rockville, Md.), and primary peritoneal macrophages were isolated from Balb/C mice (male, 7-8 weeks, 20-25 grams) at 2-3 days after intraperitoneal injection of 2 ml thioglycollate broth (4%) as previously described (Chen et al. 2004; Rendon-Mitchell et al. 2003). Murine macrophages were pre-cultured in RPMI 1640 medium (Gibco BRL, Grand Island, N.Y.) supplemented with 10% fetal bovine serum (FBS) and 2 mmol/L glutamine. Human peripheral blood mononuclear cells (HuPBMCs) were isolated from the blood of healthy donors (Long Island Blood Bank, Melville, N.Y.) by density gradient centrifugation through Ficoll (Ficoll-Paque PLUS, Pharmacia, Piscataway, N.J.), and cultured in RPMI 1640 supplemented with 10% heat-inactivated human serum/0.2 mM L-glutamine as previously described (Rendon-Mitchell et al. 2003). LPS stimulation. […] The levels of TNF in the culture medium or serum were determined using commercial enzyme linked immunosorbent assay (ELISA) kits (Catalog no. MTA00, R & D Systems, Minneapolis, Minn.) with reference to standard curves of purified recombinant TNF at various dilutions as previously described (Chen et al. 2004; Rendon-Mitchell et al. 2003; Wang et al. 2006).

lethal sepsis = experiment: Lethal sepsis induced by cecal ligation and puncture (CLP) in Balb/C mice; assay type: in vivo; details: 12 mg/kg, repeated at 24, 48, 72, 96 hours post onset; vehicle 50%; N=14, p>0.05
Method: Animal models of endotoxemia and sepsis. This study was approved and performed in accordance with the guidelines for the care and use of laboratory animals at the Feinstein Institute for Medical Research, Manhasset, N.Y. Endotoxemia was induced in Balb/C mice (male, 7-8 weeks) by intraperitoneal injection of bacterial endotoxin (LPS, 15 mg/kg) as previously described (Chen et al. 2005; Wang et al. 1999; Wang et al. 2006). Sepsis was induced in male Balb/C mice (7-8 weeks, 20-25 g) or Sprague-Dawley rats (290-310 g) by cecal ligation and puncture (CLP) as previously described (Wang et al. 2006; Yang et al. 2002b). Herbal components were administered intraperitoneally into mice at indicated doses and time points, and mice were monitored for survival for up to two weeks. In parallel experiments, mice were euthanized to collect blood at 28 h (following two doses of herbal components at −0.5 and +24 h) after endotoxemia, and at 52 h (following two doses of herbal components at +24 and +48 h) after CLP.
TNF ELISA. The levels of TNF in the culture medium or serum were determined using commercial enzyme linked immunosorbent assay (ELISA) kits (Catalog no. MTA00, R & D Systems, Minneapolis, Minn.) with reference to standard curves of purified recombinant TNF at various dilutions as previously described (Chen et al. 2004; Rendon-Mitchell et al. 2003; Wang et al. 2006).
Nitric oxide assay. The levels of nitric oxide in the culture medium were determined indirectly by measuring NO^2− production with a colorimetric assay based on the Griess reaction (Rendon-Mitchell et al. 2003). NO2-concentrations were determined with reference to a standard curve generated with sodium nitrite at various dilutions.
HMGB1 western blotting analysis. The levels of HMGB1 in the culture medium or serum were determined by western blotting analysis as previously described (Chen et al. 2004; Rendon-Mitchell et al. 2003; Wang et al. 1999). The relative band intensity was quantified using NIH image 1.59 software to determine HMGB1 levels with reference to standard curves generated with purified HMGB1.
Tissue histology. At 48 hours after CLP, mice were euthanized in CO2 Chamber, and immediately perfused (transcardially) with phosphate buffer saline and 4% paraformaldehyde. Various tissues were harvested, sectioned, and stained with hematoxylin and eosin for morphology evaluation.

phospholipase A2 = details: Kim et al. 2002; cited from earlier work
acetylcholinesterase = acetylcholinesterase (Homo sapiens, UniProt P22303); details: literature; cited from earlier work
nitric oxide = details: Wang et al. 2006; cited from earlier work
HMGB1 [2] = details: Wang et al. 2006; cited from earlier work
[3] = RAW264.7, RAW 264.7 cells, 16 h after LPS, western blot, estimated
[4] = superpharmacological concentrations (1-25 μM), data not shown

acetylcholinesterase, sequence (P22303 32-614, species assumed): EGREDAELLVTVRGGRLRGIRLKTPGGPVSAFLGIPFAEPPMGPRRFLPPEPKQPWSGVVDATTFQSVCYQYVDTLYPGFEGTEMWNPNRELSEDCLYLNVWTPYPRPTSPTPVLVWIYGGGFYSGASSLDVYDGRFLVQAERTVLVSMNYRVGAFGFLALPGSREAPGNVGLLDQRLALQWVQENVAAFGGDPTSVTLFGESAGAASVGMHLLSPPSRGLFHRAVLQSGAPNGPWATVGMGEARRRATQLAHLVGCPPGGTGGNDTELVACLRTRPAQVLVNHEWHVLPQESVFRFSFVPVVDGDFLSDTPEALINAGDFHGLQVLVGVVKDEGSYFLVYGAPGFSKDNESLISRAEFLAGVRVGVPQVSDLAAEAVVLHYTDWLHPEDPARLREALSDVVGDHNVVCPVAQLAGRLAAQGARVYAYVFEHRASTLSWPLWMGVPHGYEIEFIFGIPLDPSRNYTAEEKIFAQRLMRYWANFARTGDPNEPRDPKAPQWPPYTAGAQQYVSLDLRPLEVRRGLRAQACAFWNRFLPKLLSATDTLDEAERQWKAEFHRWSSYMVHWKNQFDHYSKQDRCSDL

SMILES: C[C@]12CCC(=O)C=C1CC[C@@H]1[C@@H]2C(=O)C[C@@]2(C)[C@H]1CC[C@]2(O)C(=O)CO [cortisone]
- effect on LPS-induced HMGB1 release (HMGB1 [1]; concentrations up to 10 μM, FIG. 5B): failed to reduce
- effect on LPS-mediated TNF secretion (TNF): effectively attenuated

SMILES: Cc1coc2c1C(=O)C(=O)c1c-2ccc2c(C)cccc12 [tanshinone I]
- IC50 (HMGB1 [1]; [3]): < 25 µM
- survival rate, lethal sepsis (lethal sepsis): 57%
- inhibition of phospholipase A2 (phospholipase A2): can inhibit

SMILES: CC(=O)Oc1ccccc1C(=O)O [aspirin]
- effect on LPS-induced HMGB1 release (HMGB1 [1]; [4]): None of the tested cyclooxygenase inhibitors (e.g., aspirin, ibuprofen, and indomethacin) significantly affected

SMILES: Cc1coc2c1C(=O)C(=O)c1c-2ccc2c1CCCC2(C)C [tanshinone IIA, 1,6,6-Trimethyl-6,7,8,9-tetrahydro-phenanthro[1,2-b]furan-10,11-dione]
- IC50 (HMGB1 [1]; [3]): < 25 µM
- survival rate, lethal sepsis (lethal sepsis): 61%

SMILES: CC1COC2=C1C(=O)C(=O)c1c2ccc2c1CCCC2(C)C (centres unmarked) [cryptotanshinone, 1,6,6-Trimethyl-1,2,6,7,8,9-hexahydro-phenanthro[1,2-b]furan-10,11-dione]
- IC50 (HMGB1 [1]; RAW264.7, 16 h): < 25 µM
- inhibition of acetylcholinesterase (acetylcholinesterase): can inhibit

SMILES: CC(C)Cc1ccc(C(C)C(=O)O)cc1 (centres unmarked) [ibuprofen]
- effect on LPS-induced HMGB1 release (HMGB1 [1]; [4]): None of the tested cyclooxygenase inhibitors (e.g., aspirin, ibuprofen, and indomethacin) significantly affected

SMILES: COc1cc(/C=C/C(=O)O)ccc1O [ferulic acid]
- effect on LPS-induced nitric oxide production (nitric oxide): effectively attenuated
- effect on LPS-induced HMGB1 release (HMGB1 [2]): failed to affect

SMILES: COc1ccc2c(c1)c(CC(=O)O)c(C)n2C(=O)c1ccc(Cl)cc1 [indomethacin]
- effect on LPS-induced HMGB1 release (HMGB1 [1]; [4]): None of the tested cyclooxygenase inhibitors (e.g., aspirin, ibuprofen, and indomethacin) significantly affected
